Assay results: patent publication US20090306112A1, “ANTIVIRAL PROTEASE INHIBITORS” (Gilead Sciences, Inc., priority 2006, published 2009)

target: T1, recombinant HIV-1 protease expressed in E. Coli (Human immunodeficiency virus type 1 group M subtype B, UniProt P04585); test: HIV-1 Protease Enzyme Assay (Ki), fluorimetric detection of hexapeptide substrate cleavage; format: biochemical; conditions: tight-binding competitive inhibition; 37° C., pH 5.3, final substrate concentration 40 μM, enzyme 1 to 2.5 nM
T1 construct: Enzyme: recombinant HIV-1 protease expressed in E. Coli; purchased Bachem California, Inc. (Torrance, Calif.) H-9040; host or cells: E. coli
From the text: Biological Assays Used for the Characterization of HIV Protease Inhibitors HIV-1 Protease Enzyme Assay (Ki)
The assay is based on the fluorimetric detection of synthetic hexapeptide substrate cleavage by HIV-1 protease in a defined reaction buffer as initially described by M. V. Toth and G. R. Marshall, Int. J. Peptide Protein Res. 36, 544 (1990)
Substrate: (2-aminobenzoyl)Thr-Ile-Nle-(p-nitro)Phe-Gln-Arg
Substrate supplied by Bachem California, Inc. (Torrance, Calif.; Cat. no. H-2992)
Enzyme: recombinant HIV-1 protease expressed in E. Coli
Enzyme supplied by Bachem California, Inc. (Torrance, Calif.; Cat. no. H-9040)
Reaction buffer: • 100 mM ammonium acetate, pH 5.3 • 1 M sodium chloride • 1 mM ethylendiaminetetraacetic acid • 1 mM dithiothreitol • 10% dimethylsulfoxide
Assay Protocol for the Determination of Inhibition Constant Ki:
• 1. Prepare series of solutions containing identical amount of the enzyme (1 to 2.5 nM) and a tested inhibitor at different concentrations in the reaction buffer • 2. Transfer the solutions (190 uL each) into a white 96-well plate • 3. Preincubate for 15 min at 37° C. • 4. Solubilize the substrate in 100% dimethylsulfoxide at a concentration of 800 μM. Start the reaction by adding 10 μL of 800 μM substrate into each well (final substrate concentration of 40 μM) • 5. Measure the real-time reaction kinetics at 37° C. by using Gemini 96-well plate fluorimeter (Molecular Devices, Sunnyvale, Calif.) at λ(Ex)=330 nm and λ(Em)=420 nm • 6. Determine initial velocities of the reactions with different inhibitor concentrations and calculate Ki (in picomolar concentration units) value by using EnzFitter program (Biosoft, Cambridge, U.K.) according to an algorithm for tight-binding competitive inhibition described by Ermolieff J., Lin X., and Tang J., Biochemistry 36, 12364 (1997)

Row | SMILES | Ki [nM]
1 | Cc1cccc(C)c1OCC(=O)NN(Cc1ccc(-c2ccccn2)cc1)C[C@H](O)[C@H](Cc1ccccc1)NC(=O)O[C@H]1CO[C@H]2OCC[C@H]21 [Example AN] | < 0.03
2 | COC(=O)NC(C(=O)NN(Cc1ccc(-c2ccccn2)cc1)C[C@H](O)[C@H](Cc1ccccc1)NC(=O)O[C@H]1C(=O)OCC1(C)C)C(C)(C)C (some centres unmarked) [Example C] | < 0.03
3 | CC(C)OC(=O)NC(C(=O)NN(Cc1ccc(-c2ccccn2)cc1)C[C@H](O)[C@H](Cc1ccccc1)NC(=O)O[C@H]1CO[C@H]2OCC[C@H]21)C(C)(C)C (some centres unmarked) [Example J] | < 0.03
4 | CC(C)(C)C(NC(=O)OCc1cscn1)C(=O)NN(Cc1ccc(-c2ccccn2)cc1)C[C@H](O)[C@H](Cc1ccccc1)NC(=O)O[C@H]1CO[C@H]2OCC[C@H]21 (some centres unmarked) [Example M] | < 0.03
5 | CC(C)(C)C(NC(=O)C(F)(F)F)C(=O)NN(Cc1ccc(-c2ccccn2)cc1)C[C@H](O)[C@H](Cc1ccccc1)NC(=O)O[C@H]1CO[C@H]2OCC[C@H]21 (some centres unmarked) [Example N] | < 0.03
6 | COC(=O)NC(C(=O)NN(Cc1ccc(-c2ccncc2)cc1)C[C@H](O)[C@H](Cc1ccc(OC)cc1)NC(=O)O[C@H]1CO[C@H]2OCC[C@H]21)C(C)(C)C (some centres unmarked) [Example Q] | < 0.03
7 | COC(=O)NC(C(=O)NN(Cc1ccc(OCc2ccncc2)cc1)C[C@H](O)[C@H](Cc1ccc(OC)cc1)NC(=O)O[C@H]1CO[C@H]2OCC[C@H]21)C(C)(C)C (some centres unmarked) [Example T] | < 0.03
8 | COC(=O)NC(C(=O)NN(Cc1ccc(OCc2ccoc2)cc1)C[C@H](O)[C@H](Cc1ccc(OC)cc1)NC(=O)O[C@H]1CO[C@H]2OCC[C@H]21)C(C)(C)C (some centres unmarked) [Example V] | < 0.03
